Reference: paper PMC5789083, “Mechanisms driving the antibacterial and antibiofilm properties of Hp1404 and its analogue peptides against multidrug-resistant Pseudomonas aeruginosa” (Scientific Reports, 2018)
Like-named read-outs stand apart in the source and are kept apart here. Where no end group is shown, it is not given here.

Assays:
[1] = test system: Pseudomonas aeruginosa and MRPA strains; assay: microbe, parasite or virus in culture; type: cell-based; details: broth micro-dilution, 37 °C, 18–24 h
Text: Gram-negative (Pseudomonas aeruginosa ATCC 27853) bacterial strains were obtained from the ATCC (American Type Culture Collection; Manassas, VA, USA). Multidrug-resistant strains (Pseudomonas aeruginosa 138, 431, 434, 557, 559, 778, 1034, 1162, 3290, 3399, 3592, 3904, 4007, 4319, 4891, 5018, and 671973) were obtained from the Chonnam National University Hospital (Gwangju, South Korea).
(§1) We examined the activity of each peptide against both pseudomonas aeruginosa and multidrug-resistant strains. The minimal inhibitory concentrations (MICs) of peptides were determined using the broth micro-dilution assay as described previously. Briefly, bacterial strains were cultivated with shaking overnight at 37 °C. The next day, they were diluted to a density of 2 × 10^5 CFU/mL with growth medium. Peptides were serially diluted with 10 mM sodium phosphate buffer. 50 µL bacterial aliquots were mixed with an equal volume of peptide solution, and incubated at 37 °C for 18–24 h. Inhibition of bacterial growth was determined by measuring the absorbance at 600 nm using a Versa Max microplate reader (Molecular Devices, Sunnyvale, CA, USA). The test was performed in triplicate.

HaCaT cells = assay: Cytotoxicity, MTT assay; type: cell-based, human; details: 50 µM, 24 h
Description: We used the MTT assay to evaluate the toxicity of the peptides toward human skin epithelial cells (HaCaT) as previously described. Briefly, HaCaT cells were seeded at a density of 2 × 10^4 cells per well in 96-well microtiter plates in Dulbecco’s modified Eagle’s medium (DMEM) containing 10% foetal bovine serum (FBS) at 37 °C under 5% CO2 atmosphere. The next day, peptides were added to each well at various final concentrations (higher concentration of 200 µM). After 24 h incubation, culture supernatants were removed. 0.5 mg/mL MTT was added to each well, and the plates were incubated for 4 h at 37 °C. The medium was replaced by dimethyl sulfoxide (DMSO) to dissolve the formazan crystals formed in the wells. The absorbance at 570 nm was measured using a Versa-Max microplate ELISA reader (Molecular Devices). The viability rate was calculated using the following formula: Cell viability (%) = (absorbance of treated sample)/(absorbance of control) × 100.

[2] = test system: P. aeruginosa strains (biofilm formation); type: cell-based, Pseudomonas aeruginosa; details: 24 h, 37 °C, crystal violet OD595
Description: To evaluate the ability of bacterial strains to form biofilms either in the absence or presence of peptides, antibiotic-susceptible P. aeruginosa (ATCC 27853), and various strains of MDR P. aeruginosa were cultured in nutrient broth (NB). […]. The biofilms were fixed with 100% methanol for 15 min, stained with 0.1% crystal violet (CV) for 1 h, and rinsed three times with distilled water (dH2O). After the addition of 95% ethanol, biofilm mass was quantified by measuring OD at 595 nm using a Versa-Max microplate ELISA reader (Molecular Devices). Results were expressed as the percentage of biofilm formed with respect to the control. […] All experiments were performed at least in triplicate.

P. aeruginosa 27853 = type: cell-based, Pseudomonas aeruginosa
Description: as §1
The effects of various cations on the antibacterial activities of the parental and analogue peptides against P. aeruginosa 27853 were evaluated as previously described. Bacteria was treated with peptides at a final concentration 25 µM in the presence of physiological salts such as NaCl (50 mM, 100 mM, and 150 mM), CaCl2 (1.25 mM, 2.5 mM, and 5 mM), or MgCl2 (0.5 mM, 1 mM, and 2 mM). The MIC values were determined as described above.

[3] = P. aeruginosa 138 (multidrug-resistant), triplicate
[4] = P. aeruginosa 431 (multidrug-resistant), triplicate
[5] = P. aeruginosa 434 (multidrug-resistant), triplicate
[6] = P. aeruginosa 557 (multidrug-resistant), triplicate
[7] = P. aeruginosa 559 (multidrug-resistant), triplicate
[8] = P. aeruginosa 778 (multidrug-resistant), triplicate
[9] = P. aeruginosa 1034 (multidrug-resistant), triplicate
[10] = P. aeruginosa 1162 (multidrug-resistant), triplicate
[11] = P. aeruginosa 3290 (multidrug-resistant), triplicate
[12] = P. aeruginosa 3399 (multidrug-resistant), triplicate
[13] = P. aeruginosa 3543 (multidrug-resistant), triplicate
[14] = P. aeruginosa 3592 (multidrug-resistant), triplicate
[15] = P. aeruginosa 3904 (multidrug-resistant), triplicate
[16] = P. aeruginosa 4007 (multidrug-resistant), triplicate
[17] = P. aeruginosa 4319 (multidrug-resistant), triplicate
[18] = P. aeruginosa 4891 (multidrug-resistant), triplicate
[19] = P. aeruginosa 5018 (multidrug-resistant), triplicate
[20] = P. aeruginosa 671973 (multidrug-resistant), triplicate
[21] = P. aeruginosa ATCC 27853, 2 × 10^5 CFU/mL, A600, triplicate
[22] = P. aeruginosa 27853, 5 × 10^5 CFU/mL, 0.2% glucose

GILGKLWEGVKSIF-NH2 [Hp1404]
MIC [1, 3]: 12.5 µM
MIC [1, 4]: 12.5 µM
MIC [1, 5]: 12.5 µM
MIC [1, 6]: 6.25 µM
MIC [1, 7]: 25 µM
MIC [1, 8]: 12.5 µM
MIC [1, 9]: 6.25 µM
MIC [1, 10]: 12.5 µM
MIC [1, 11]: 12.5 µM
MIC [1, 12]: 6.25 µM
MIC [1, 13]: 6.25 µM
MIC [1, 14]: 6.25 µM
MIC [1, 15]: 6.25 µM
MIC [1, 16]: 25 µM
MIC [1, 17]: 12.5 µM
MIC [1, 18]: 6.25 µM
MIC [1, 19]: 12.5 µM
MIC [1, 20]: 3.13 µM
MIC [1, 21]: 12.5 µM
survival rate of HaCaT cells (HaCaT cells): 30%
MBIC ([2]; P. aeruginosa 434): 25 µM
MBIC ([2]; P. aeruginosa 559): 50 µM
MBIC ([2]; P. aeruginosa 778): 25 µM
MBIC ([2]; P. aeruginosa 1034): 25 µM
MBIC ([2]; P. aeruginosa 1162): 25 µM
MBIC ([2]; P. aeruginosa 3399): 12.5 µM
MBIC ([2]; P. aeruginosa 3543): 6.25 µM
MBIC ([2]; P. aeruginosa 4007): 25 µM
MBIC [2, 22]: 25 µM
MIC (P. aeruginosa 27853; CaCl2 1.25 mM): >25 µM
MIC (P. aeruginosa 27853; CaCl2 2.5 mM): >25 µM
MIC (P. aeruginosa 27853; CaCl2 5 mM): >25 µM
MIC (P. aeruginosa 27853; MgCl2 0.5 mM): 25 µM
MIC (P. aeruginosa 27853; MgCl2 1 mM): 25 µM
MIC (P. aeruginosa 27853; MgCl2 2 mM): >25 µM
MIC (P. aeruginosa 27853; NaCl 50 mM): 25 µM
MIC (P. aeruginosa 27853; NaCl 100 mM): >25 µM
MIC (P. aeruginosa 27853; NaCl 150 mM): >25 µM

ILKKLLKKVKKI-NH2 [Hp1404-T1e]
MIC [1, 3]: 6.25 µM
MIC [1, 4]: 3.13 µM
MIC [1, 5]: 3.13 µM
MIC [1, 6]: 3.13 µM
MIC [1, 7]: 6.25 µM
MIC [1, 8]: 1.56 µM
MIC [1, 9]: 1.56 µM
MIC [1, 10]: 1.56 µM
MIC [1, 11]: 6.25 µM
MIC [1, 12]: 0.78 µM
MIC [1, 13]: 12.5 µM
MIC [1, 14]: 1.56 µM
MIC [1, 15]: 3.13 µM
MIC [1, 16]: 3.13 µM
MIC [1, 17]: 3.13 µM
MIC [1, 18]: 1.56 µM
MIC [1, 19]: 1.56 µM
MIC [1, 20]: 1.56 µM
MIC [1, 21]: 1.56 µM
survival rate of HaCaT cells (HaCaT cells): 100%
MBIC ([2]; P. aeruginosa 434): 12.5 µM
MBIC ([2]; P. aeruginosa 559): 12.5 µM
MBIC ([2]; P. aeruginosa 778): 6.25 µM
MBIC ([2]; P. aeruginosa 1034): 6.25 µM
MBIC ([2]; P. aeruginosa 1162): 6.25 µM
MBIC ([2]; P. aeruginosa 3399): 12.5 µM
MBIC ([2]; P. aeruginosa 3543): 50 µM
MBIC ([2]; P. aeruginosa 4007): 12.5 µM
MBIC [2, 22]: 12.5 µM
MIC (P. aeruginosa 27853; CaCl2 1.25 mM): 6.25 µM
MIC (P. aeruginosa 27853; CaCl2 2.5 mM): 12.5 µM
MIC (P. aeruginosa 27853; CaCl2 5 mM): >25 µM
MIC (P. aeruginosa 27853; MgCl2 0.5 mM): 3.13 µM
MIC (P. aeruginosa 27853; MgCl2 1 mM): 3.13 µM
MIC (P. aeruginosa 27853; MgCl2 2 mM): 12.5 µM
MIC (P. aeruginosa 27853; NaCl 50 mM): 6.25 µM
MIC (P. aeruginosa 27853; NaCl 100 mM): 6.25 µM
MIC (P. aeruginosa 27853; NaCl 150 mM): 12.5 µM
